In the NIST ThermoML archive (doi:10.1016/j.tca.2013.08.001):
Numbers after ± are expanded uncertainties.

Assays:
[1] = Molar enthalpy of transition or fusion; details: DSC
[2] = DTA

Compound: CCCCCCCCCCCCCCCCCCCCCC [docosane]
- Molar enthalpy of transition or fusion ([1]; Crystal 1): 11.7 ± 0.382 kcal/mol
- Molar enthalpy of transition or fusion ([1]; Crystal 2): 6.92 ± 0.153 kcal/mol
- Triple point temperature ([2]; Crystal 1): 318.08 ± 0.39 K
- Triple point temperature ([2]; Crystal 2): 317.22 ± 0.39 K
